# Test results: patent US20260021159A1, “STABLE PEPTIDE COMPOSITIONS AND METHODS OF USE THEREOF FOR TREATMENT OF MODERATE/SEVERE DRY EYE-RELATED OCULAR SYMPTOMS” (TearSolutions, Inc., priority 2022, published 2026)
# “Also recorded” adds a separate entry of the source.
# Columns and labels:
# Type in all cases: in vivo, human
# [1] = test system: subjects with ocular surface disease associated with Primary Sjögren's Syndrome; assay: Burning/Stinging individual symptom assessment (VAS) in Lacripep clinical study
# Method: (§1) The primary objective of this study was to evaluate the safety and tolerability of 22 and 44 μM Lacripep™ ophthalmic solution versus placebo (vehicle) administered three times daily for 28 days in subjects with a history of ocular surface disease associated with Primary Sjögren's Syndrome, including subjects with mild dry eye symptoms. Additionally, many dry eye signs and symptoms were assessed.
# (§2) This was a multi-center, randomized, placebo-controlled, double-masked, parallel-group study conducted at 35 sites in the United States, and approved by local institutional review boards. Written informed consent was obtained from all subjects after review of risks and benefits of participation. The study was conducted in accordance with the Health Insurance Portability and Accountability Act of 1996 and Declaration of Helsinki of 1996 and registered at ClinicalTrials.gov: NCT 03226444.
# (§3) The study duration was 56 days, including a 14-day run-in period, a 28-day active treatment period, and 14-day follow-up period (wash-out) (see FIG. 2). Measurements were collected at five scheduled visits.
# (§4) Randomization and Treatment: At Visit 2 (Baseline/Randomization) eligibility was confirmed. All criteria were met in the same study eye. […] Eligible subjects were randomly assigned to one of the three treatment groups: one of two Lacripep™ ophthalmic solution strengths (22 μM or 44 μM) or placebo (vehicle).
# One drop of investigational product was administered three times a day (TID) to both eyes for 28 days. […]
# Tear film break-up time (TBUT) was measured in seconds. The Symptom Assessment in Dry Eye (SANDE) inventory version 1 and version 2 measured patient-rated symptom severity and frequency using a visual-analogue scale. The Individual Symptom Assessments (instantaneous and Reflective) measured patient-reported symptoms on a visual-analogue scale (VAS). […]
# Post-Hoc Efficacy Analysis: Post-hoc, all primary and secondary endpoints were assessed for treatment effect controlling for baseline Eye Dryness Score (EDS) using analysis of covariance (ANCOVA). […] Subgroups were then evaluated according to baseline EDS.
# [2] = test system: subjects with ocular surface disease associated with Primary Sjögren's Syndrome; assay: Corneal fluorescein staining (CFS, NEI scale) in Lacripep clinical study NCT 03226444
# Method: as §1, §2, §3
# Screening and Eligibility: At Visit 1 (Screening) informed consent was obtained from subjects and eligibility was determined requiring documentation of Primary Sjögren's Syndrome per the American-European Consensus Group Sjögren's Syndrome Criteria. Subjects were at least 18 years of age with a history of dry eye-related symptoms and use of eye-wetting agents within the past 120 days. Major inclusion criteria at the screening and subsequent baseline visits included: • 1. CFS total score >4 and <15 in the National Eye Institute Industry Workshop (NEI) scale (Protocol Appendix 6) • 2. Symptom Severity score of ≥40 using the Symptom Assessment in Dry Eye (SANDE) questionnaire • 3. Anesthetized Schirmer test score […] • 4. LGCS total score ≥5 using the NEI scale
# as §4
# (§5) One drop of investigational product was administered three times a day (TID) to both eyes for 28 days. At Visit 3 (Week 2) and Visit 4 (Week 4) efficacy and safety evaluations were performed. Subjects who discontinued before Visit 4 underwent Visit 4 evaluations (Early Termination).
# (§6) Efficacy: All efficacy assessments were performed in both eyes, and by the same person if possible. […] Lissamine green conjunctival staining (LGCS) was assessed in 6 regions on a 0 to 3 scale (total 0 to 18). All sites were trained and tested on NEI scoring methodology.
# The primary efficacy measurement was mean change from Baseline to Day 28 in CFS total score (NEI/Industry Workshop 0-15 scale, 0-3 scale in each of 5 regions) in the study eye. The key secondary efficacy measurement was mean change from Baseline to Day 28 in Eye Dryness Score (VAS from 0 to 100 mm) from Individual Symptom Assessments.
# The change from Baseline in CFS to Day 14 and to post treatment follow-up (Day 42) were additional secondary measurements. Other secondary measurements included changes from baseline to Day 14 and Day 28 in the LGCS scores, TFBUT, and Schirmer tests. Secondary symptom measurements included changes from baseline to Day 14 and Day 28 in the SANDE and each of the Individual Symptom Assessments. […]
# [3] = test system: subjects with ocular surface disease associated with Primary Sjögren's Syndrome; assay: Lissamine green conjunctival staining (LGCS, NEI scale) in Lacripep clinical study
# Method: as §1, §2, §3, §4, §5, §6
# The change from Baseline in CFS to Day 14 and to post treatment follow-up (Day 42) were additional secondary measurements. Other secondary measurements included changes from baseline to Day 14 and Day 28 in the LGCS scores, TFBUT, and Schirmer tests. Secondary symptom measurements included changes from baseline to Day 14 and Day 28 in the SANDE and each of the Individual Symptom Assessments.
# Post-Hoc Efficacy Analysis: Post-hoc, all primary and secondary endpoints were assessed for treatment effect controlling for baseline Eye Dryness Score (EDS) using analysis of covariance (ANCOVA). All ANCOVA models were fit using the Proc Mixed procedure in SAS. Post-hoc analysis was also performed using all observed data in the ITT set, without imputation. […] Subgroups were then evaluated according to baseline EDS.
# [4] = 22 μM TID, day 14, prespecified analysis
substance,measurement,setting,value
"Ac-Lys-Gln-Phe-Ile-Glu-Asn-Gly-Ser-Glu-Phe-Ala-Gln-Lys-Leu-Leu-Lys-Lys-Phe-Ser-NH2 (Ac-KQFIENGSEFAQKLLKKFS-NH2) [Lacripep™, synthetic 19 amino acid peptide fragment of lacritin]",Improvement from baseline in Burning/Stinging symptom (reflective VAS rating) vs. placebo,[1]; [4],statistically significant
same,Burning/Stinging symptom vs placebo at later time points,"[1]; both dose groups (22 and 44 μM), day 28 and day 42, not statistically significant",trend better than the placebo group
same,Burning/Stinging symptom treatment effect,"[1]; both dose groups, day 28, subset baseline EDS of ≥60",positive but not significant effect
same,Improvement in total CFS score vs placebo,"[2]; 22 μM TID, day 14, baseline EDS set, p=0.03",1.2
same,Improvement from baseline in inferior region CFS score vs. placebo,[2]; [4],statistically significant
same,Treatment effect on inferior CFS after washout,"[2]; 22 μM, day 42 post-treatment follow-up, subset baseline EDS",falling off after washout
same,Difference in inferior region CFS score vs. placebo,"[2]; 44 μM TID (higher dose group), subset baseline EDS≥60",Positive (though not statistically significant) differences; also recorded: positive but not significant effect
same,Primary endpoint of CFS score at day 28,"[2]; day 28, change from baseline in CFS total score vs placebo",not met
same,Improvement in change from baseline LGCS total score vs. placebo,"[3]; 22 μM TID, day 14, subset baseline EDS≥60, p=0.017",1.5
same,Improvement in LGCS segment 5 vs. placebo,"[3]; 22 μM TID, day 14, subset baseline EDS≥60, p=0.038",0.4
same,Improvement in LGCS segment 1 vs. placebo,"[3]; 22 μM TID, day 14, subset baseline EDS≥60, p=0.049",0.4
same,Improvement in LGCS,[3]; prespecified secondary endpoint analysis,not statistically significant
